According to patent publication US8283361B2 (AstraZeneca AB, priority 2008, dated 2012):
Several values for one entry are separate records, joined by “and”; a condition that tells them apart may be missing. Identical values can stand only once. Counter-ions that a name gives are not always drawn.

Molecular target: S. aureus GyrB ATPase (Staphylococcus aureus, UniProt P0A0K8)
Assay: biochemical
Conditions: compound at 1 μM; one value per test if tested more than once; 1 µM
Method in brief: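 IC50 values derive from 10-point titrations of compound (in DMSO). Phosphate formed from 250 μM ATP was quantified by acidic molybdate/malachite green after quenching.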

Chain of S. aureus GyrB ATPase (P0A0K8 whole entry): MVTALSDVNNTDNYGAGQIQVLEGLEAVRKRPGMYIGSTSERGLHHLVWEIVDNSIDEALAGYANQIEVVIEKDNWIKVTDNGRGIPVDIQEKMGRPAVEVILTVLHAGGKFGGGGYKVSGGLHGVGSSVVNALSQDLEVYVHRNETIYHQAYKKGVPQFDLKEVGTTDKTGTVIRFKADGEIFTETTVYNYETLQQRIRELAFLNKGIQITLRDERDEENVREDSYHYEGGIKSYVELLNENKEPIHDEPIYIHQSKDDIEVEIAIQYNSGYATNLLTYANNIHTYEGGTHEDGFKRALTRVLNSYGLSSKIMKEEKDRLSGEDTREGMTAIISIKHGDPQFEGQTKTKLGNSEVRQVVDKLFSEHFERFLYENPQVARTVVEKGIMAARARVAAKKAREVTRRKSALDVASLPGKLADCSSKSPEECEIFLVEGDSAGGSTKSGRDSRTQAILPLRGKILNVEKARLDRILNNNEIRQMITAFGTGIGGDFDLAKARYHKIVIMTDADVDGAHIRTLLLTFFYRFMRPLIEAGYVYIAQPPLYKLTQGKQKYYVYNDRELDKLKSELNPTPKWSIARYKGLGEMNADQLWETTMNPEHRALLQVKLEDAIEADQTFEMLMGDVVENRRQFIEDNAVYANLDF
Chain of S. aureus GyrB ATPase (P0AES4 whole entry, further chain): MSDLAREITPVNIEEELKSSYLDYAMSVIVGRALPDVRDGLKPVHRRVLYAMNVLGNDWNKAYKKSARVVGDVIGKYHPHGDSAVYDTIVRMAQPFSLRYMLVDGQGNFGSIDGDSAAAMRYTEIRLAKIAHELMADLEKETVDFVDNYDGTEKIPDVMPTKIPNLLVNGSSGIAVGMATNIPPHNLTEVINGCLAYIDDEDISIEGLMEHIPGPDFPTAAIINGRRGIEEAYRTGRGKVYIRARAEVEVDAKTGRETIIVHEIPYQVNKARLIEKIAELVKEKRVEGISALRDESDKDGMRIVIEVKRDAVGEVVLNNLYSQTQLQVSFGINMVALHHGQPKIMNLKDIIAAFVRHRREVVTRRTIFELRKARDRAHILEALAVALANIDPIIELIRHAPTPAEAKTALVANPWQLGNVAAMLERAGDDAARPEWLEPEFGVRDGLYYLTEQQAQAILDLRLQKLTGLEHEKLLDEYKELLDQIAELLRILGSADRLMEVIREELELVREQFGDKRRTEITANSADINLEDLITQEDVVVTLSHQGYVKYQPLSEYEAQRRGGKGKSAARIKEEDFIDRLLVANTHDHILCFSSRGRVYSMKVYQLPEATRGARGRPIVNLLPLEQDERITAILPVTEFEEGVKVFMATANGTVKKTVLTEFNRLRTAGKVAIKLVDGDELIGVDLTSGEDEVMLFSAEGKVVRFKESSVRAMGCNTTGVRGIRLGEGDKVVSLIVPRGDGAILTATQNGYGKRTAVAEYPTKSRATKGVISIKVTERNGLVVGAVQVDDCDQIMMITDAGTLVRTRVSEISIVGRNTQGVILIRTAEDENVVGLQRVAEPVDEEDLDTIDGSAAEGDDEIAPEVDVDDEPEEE

Row | Compound | % Inhibition of S. aureus GyrB ATPase
1 | CCNC(=O)Nc1cc(-c2nc(C(F)(F)F)cs2)c(-c2ccc3c(c2)c(=O)c(C(=O)O)cn3CC2COCCN2)cn1 (stereo not shown) [Example 294] | 109%
2 | CCNC(=O)Nc1cc(-c2nc(C(F)(F)F)cs2)c(-c2ccc3c(c2)c(=O)c(C(=O)O)cn3CC2CCN(CCN3CCOCC3)C2)cn1 (stereo not shown) [Example 306, 6-(6-(3-ethylureido)-4-(4-(trifluoromethyl)thiazol-2-yl)pyridin-3-yl)-1-((1-(2-morpholinoethyl)pyrrolidin-3-yl)methyl)-4-oxo-1,4-dihydroquinoline-3-carboxylic acid] | 100% and 102%

Same assay, conditions: compound at 1 μM; one value per test if tested more than once; read-out: % Inhibition of S. aureus GyrB ATPase

Row | Compound | inhibition at 1 µM
3 | CCNC(=O)Nc1cc(-c2nc(C(F)(F)F)cs2)c(-c2ccc3c(c2)c(=O)c(C(=O)O)cn3CC(C)N(C)C)cn1 (stereo not shown) [Example 277, 1-(2-(dimethylamino)propyl)-6-(6-(3-ethylureido)-4-(4-(trifluoromethyl)thiazol-2-yl)pyridin-3-yl)-4-oxo-1,4-dihydroquinoline-3-carboxylic acid] | 103%
4 | CCNC(=O)Nc1cc(-c2nc(C(F)(F)F)cs2)c(-c2ccc3c(c2)c(=O)c(C(=O)O)cn3[C@@H]2CCCC[C@H]2O)cn1 [Example 278, 6-(6-(3-ethylureido)-4-(4-(trifluoromethyl)thiazol-2-yl)pyridin-3-yl)-1-((1R,2R)-2-hydroxycyclohexyl)-4-oxo-1,4-dihydroquinoline-3-carboxylic acid] | 101%
5 | CCNC(=O)Nc1cc(-c2nc(C(F)(F)F)cs2)c(-c2ccc3c(c2)c(=O)c(C(=O)O)cn3[C@H]2CCCC[C@@H]2O)cn1 [Example 279, 6-(6-(3-ethylureido)-4-(4-(trifluoromethyl)thiazol-2-yl)pyridin-3-yl)-1-((1S,2S)-2-hydroxycyclohexyl)-4-oxo-1,4-dihydroquinoline-3-carboxylic acid] | 103%
6 | CCNC(=O)Nc1cc(-c2nc(C(F)(F)F)cs2)c(-c2ccc3c(c2)c(=O)c(C(=O)O)cn3[C@H]2CCCN(CCS(C)(=O)=O)C2)cn1 [Example 280, (S)-ethyl 6-(6-(3-ethylureido)-4-(4-(trifluoromethyl)thiazol-2-yl)pyridin-3-yl)-1-(1-(2-(methylsulfonyl)ethyl)piperidin-3-yl)-4-oxo-1,4-dihydroquinoline-3-carboxylic acid] | 103%
7 | CCNC(=O)Nc1cc(-c2nc(C(F)(F)F)cs2)c(-c2ccc3c(c2)c(=O)c(C(=O)O)cn3[C@@H]2CCCN(CCS(C)(=O)=O)C2)cn1 [Example 281, (R)-ethyl 6-(6-(3-ethylureido)-4-(4-(trifluoromethyl)thiazol-2-yl)pyridin-3-yl)-1-(1-(2-(methylsulfonyl)ethyl)piperidin-3-yl)-4-oxo-1,4-dihydroquinoline-3-carboxylic acid] | 106%
8 | CCNC(=O)Nc1cc(-c2nc(C(F)(F)F)cs2)c(-c2ccc3c(c2)c(=O)c(C(=O)O)cn3[C@@H]2CCCN(Cc3cccn3C)C2)cn1 [Example 282, (R)-ethyl 6-(6-(3-ethylureido)-4-(4-(trifluoromethyl)thiazol-2-yl)pyridin-3-yl)-1-(1-((1-methyl-1H-pyrrol-2-yl)methyl)piperidin-3-yl)-4-oxo-1,4-dihydroquinoline-3-carboxylic acid] | 105%
9 | CCNC(=O)Nc1cc(-c2nc(C(F)(F)F)cs2)c(-c2ccc3c(c2)c(=O)c(C(=O)O)cn3[C@H]2CCCN(Cc3cccn3C)C2)cn1 [Example 283, (S)-ethyl 6-(6-(3-ethylureido)-4-(4-(trifluoromethyl)thiazol-2-yl)pyridin-3-yl)-1-(1-((1-methyl-1H-pyrrol-2-yl)methyl)piperidin-3-yl)-4-oxo-1,4-dihydroquinoline-3-carboxylic acid] | 102%
10 | CCNC(=O)Nc1cc(-c2nc(C(F)(F)F)cs2)c(-c2ccc3c(c2)c(=O)c(C(=O)O)cn3[C@H]2CCCN(CCN3CCOCC3)C2)cn1 [Example 284, (S)-ethyl 6-(6-(3-ethylureido)-4-(4-(trifluoromethyl)thiazol-2-yl)pyridin-3-yl)-1-(1-(2-morpholinoethyl)piperidin-3-yl)-4-oxo-1,4-dihydroquinoline-3-carboxylic acid] | 107%
11 | CCNC(=O)Nc1cc(-c2nc(C(F)(F)F)cs2)c(-c2ccc3c(c2)c(=O)c(C(=O)O)cn3[C@@H]2CCCN(CCN3CCOCC3)C2)cn1 [Example 285, (R)-ethyl 6-(6-(3-ethylureido)-4-(4-(trifluoromethyl)thiazol-2-yl)pyridin-3-yl)-1-(1-(2-morpholinoethyl)piperidin-3-yl)-4-oxo-1,4-dihydroquinoline-3-carboxylic acid] | 105%
12 | CCNC(=O)Nc1cc(-c2nc(C(F)(F)F)cs2)c(-c2ccc3c(c2)c(=O)c(C(=O)O)cn3[C@@H]2CCCN(CC(C)(C)C)C2)cn1 [Example 286] | 102%
13 | CCNC(=O)Nc1cc(-c2nc(C(F)(F)F)cs2)c(-c2ccc3c(c2)c(=O)c(C(=O)O)cn3[C@H]2CCCN(CCN(CC)CC)C2)cn1 [Example 287, (S)-ethyl 1-(1-(2-(diethylamino)ethyl)piperidin-3-yl)-6-(6-(3-ethylureido)-4-(4-(trifluoromethyl)thiazol-2-yl)pyridin-3-yl)-4-oxo-1,4-dihydroquinoline-3-carboxylic acid trifluoroacetate] | 100%
14 | CCNC(=O)Nc1cc(-c2nc(C(F)(F)F)cs2)c(-c2ccc3c(c2)c(=O)c(C(=O)O)cn3[C@@H]2CCCN(CCN(CC)CC)C2)cn1 [Example 288, (S)-ethyl 1-(1-(2-(diethylamino)ethyl)piperidin-3-yl)-6-(6-(3-ethylureido)-4-(4-(trifluoromethyl)thiazol-2-yl)pyridin-3-yl)-4-oxo-1,4-dihydroquinoline-3-carboxylic acid trifluoroacetate] | 99%
15 | CCNC(=O)Nc1cc(-c2nc(C(F)(F)F)cs2)c(-c2ccc3c(c2)c(=O)c(C(=O)O)cn3[C@H]2CCCN(CC(C)(C)CN3CCOCC3)C2)cn1 [Example 289, (S)-1-(1-(2,2-dimethyl-3-morpholinopropyl)piperidin-3-yl)-6-(6-(3-ethylureido)-4-(4-(trifluoromethyl)thiazol-2-yl)pyridin-3-yl)-4-oxo-1,4-dihydroquinoline-3-carboxylic acid] | 103%
16 | CCNC(=O)Nc1cc(-c2nc(C(F)(F)F)cs2)c(-c2ccc3c(c2)c(=O)c(C(=O)O)cn3[C@@H]2CCCN(CC(C)(C)CN3CCOCC3)C2)cn1 [Example 290, (R)-1-(1-(2,2-dimethyl-3-morpholinopropyl)piperidin-3-yl)-6-(6-(3-ethylureido)-4-(4-(trifluoromethyl)thiazol-2-yl)pyridin-3-yl)-4-oxo-1,4-dihydroquinoline-3-carboxylic acid] | 100%
17 | CCNC(=O)Nc1cc(-c2nc(C(F)(F)F)cs2)c(-c2ccc3c(c2)c(=O)c(C(=O)O)cn3[C@H]2CCCN(CCO)C2)cn1 [Example 291, (S)-6-(6-(3-ethylureido)-4-(4-(trifluoromethyl)thiazol-2-yl)pyridin-3-yl)-1-(1-(2-hydroxyethyl)piperidin-3-yl)-4-oxo-1,4-dihydroquinoline-3-carboxylic acid] | 107%
18 | CCNC(=O)Nc1cc(-c2nc(C(F)(F)F)cs2)c(-c2ccc3c(c2)c(=O)c(C(=O)O)cn3[C@@H]2CCCN(CCO)C2)cn1 [Example 292, (R)-6-(6-(3-ethylureido)-4-(4-(trifluoromethyl)thiazol-2-yl)pyridin-3-yl)-1-(1-(2-hydroxyethyl)piperidin-3-yl)-4-oxo-1,4-dihydroquinoline-3-carboxylic acid] | 102%
19 | CCNC(=O)Nc1cc(-c2nc(C(F)(F)F)cs2)c(-c2ccc3c(c2)c(=O)c(C(=O)O)cn3CC2COCCN2)cn1 (stereo not shown) [Example 293] | 106%
20 | CCNC(=O)Nc1cc(-c2nc(C(F)(F)F)cs2)c(-c2ccc3c(c2)c(=O)c(C(=O)O)cn3CC2CCN(CC)C2)cn1 (stereo not shown) [Example 305, 1-((1-ethylpyrrolidin-3-yl)methyl)-6-(6-(3-ethylureido)-4-(4-(trifluoromethyl)thiazol-2-yl)pyridin-3-yl)-4-oxo-1,4-dihydroquinoline-3-carboxylic acid] | 103%
21 | CCNC(=O)Nc1cc(-c2nc(C(F)(F)F)cs2)c(-c2ccc3c(c2)c(=O)c(C(=O)O)cn3CC2CCN(CCN3CCOCC3)C2)cn1 (stereo not shown) [Example 306, 6-(6-(3-ethylureido)-4-(4-(trifluoromethyl)thiazol-2-yl)pyridin-3-yl)-1-((1-(2-morpholinoethyl)pyrrolidin-3-yl)methyl)-4-oxo-1,4-dihydroquinoline-3-carboxylic acid] | 105%
22 | CCNC(=O)Nc1cc(-c2nc(C(F)(F)F)cs2)c(-c2ccc3c(c2)c(=O)c(C(=O)O)cn3CC2CCN(CC3CCCO3)C2)cn1 (stereo not shown) [Example 307, 6-(6-(3-ethylureido)-4-(4-(trifluoromethyl)thiazol-2-yl)pyridin-3-yl)-4-oxo-1-((1-((tetrahydrofuran-2-yl)methyl)pyrrolidin-3-yl)methyl)-1,4-dihydroquinoline-3-carboxylic acid] | 105%
23 | CCNC(=O)Nc1cc(-c2nc(C(F)(F)F)cs2)c(-c2ccc3c(c2)c(=O)c(C(=O)O)cn3CC2CCN(CCO)C2)cn1 (stereo not shown) [Example 308, 6-(6-(3-ethylureido)-4-(4-(trifluoromethyl)thiazol-2-yl)pyridin-3-yl)-1-((1-(2-hydroxyethyl)pyrrolidin-3-yl)methyl)-4-oxo-1,4-dihydroquinoline-3-carboxylic acid hydrochloride] | 111%
24 | CCNC(=O)Nc1cc(-c2nc(C(F)(F)F)cs2)c(-c2ccc3c(c2)c(=O)c(C(=O)O)cn3C2CCCN(Cc3ccncc3)C2)cn1 (stereo not shown) [Example 309, 6-(6-(3-ethylureido)-4-(4-(trifluoromethyl)thiazol-2-yl)pyridin-3-yl)-4-oxo-1-(1-(pyridin-4-ylmethyl)piperidin-3-yl)-1,4-dihydroquinoline-3-carboxylic acid] | 109%
25 | CCNC(=O)Nc1cc(-c2nc(C(F)(F)F)cs2)c(-c2ccc3c(c2)c(=O)c(C(=O)O)cn3C2CCCN(C)C2)cn1 (stereo not shown) [Example 311, 6-(6-(3-ethylureido)-4-(4-(trifluoromethyl)thiazol-2-yl)pyridin-3-yl)-1-(1-methylpiperidin-3-yl)-4-oxo-1,4-dihydroquinoline-3-carboxylic acid] | 100%
